The values that follow come from patent US20180360810A1, “NUPHARIDINE COMPOUNDS AND DERIVATIVES THEREOF FOR THE TREATMENT OF CYSTEINE PROTEASE RELATED DISEASES” (B. G. NEGEV TECHNOLOGIES AND APPLICATIONS LTD., AT …, priority 2015, published 2018).

Type in all cases: biochemical
One assay has as its target T1, Human Cathepsin L (Homo sapiens, UniProt P07711).
T1 construct: purchased
Description: Cathepsin L fluorometric inhibition assay. The settings on record: substrate Ac-FR-AFC; CTSL Assay Buffer; molarity calculated on assumed molecular weight of 526 daltons; read-out: IC50 (Nanomolar). The procedure: (§1) Inhibition assays were performed in triplicates using 96 well plates transparent for Calpain, Trypsin, Papain, Cathepsin L and Cathepsin B (167008; Nunc, Roskilde, Denmark), or black for Cathepsin S, Cathepsin D and Insulyzin (ide) (Greiner 96 Polystyrol GRE96fb) according to manufacturers' instructions. Briefly, reaction mixture of 100 μl contained: 45 μl of enzyme in assay buffer, 5 μl of inhibitors diluted in DMSO. 50 μl substrate prepared in assay buffer according to manufacturers' instructions. The inhibitor was serially diluted in DMSO to concentrations from 0.0075 μg/μL to 0.0000075 μg/μL. 5 μl DMSO was added to control sample. Cathepsin substrate mix was added last just before starting the fluorometric measurement. Data was collected for 1.5 h at 60 sec intervals. Molarity of inhibitors were calculated based on assumed molecular weight of 526 daltons as a reference value for comparative evaluations.

The target in a further assay is T2, Human rCathepsin D (Homo sapiens, UniProt P07339).
T2 construct: purchased
T2 sequence (P07339 65-412): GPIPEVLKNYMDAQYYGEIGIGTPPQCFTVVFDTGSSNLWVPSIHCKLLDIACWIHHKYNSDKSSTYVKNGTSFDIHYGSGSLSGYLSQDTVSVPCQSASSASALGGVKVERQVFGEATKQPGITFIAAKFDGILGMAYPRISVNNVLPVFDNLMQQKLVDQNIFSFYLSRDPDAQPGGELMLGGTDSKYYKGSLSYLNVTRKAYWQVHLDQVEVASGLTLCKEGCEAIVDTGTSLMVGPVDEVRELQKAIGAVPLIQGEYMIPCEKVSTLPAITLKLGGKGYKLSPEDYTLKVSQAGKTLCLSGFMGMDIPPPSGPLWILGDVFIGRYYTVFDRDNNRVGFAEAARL
Description: Cathepsin D fluorometric inhibition assay. As to conditions: substrate ES001; pH 3.5; molarity calculated on assumed molecular weight of 526 daltons; read-out: IC50 (Nanomolar). As to the method: as §1

A further assay has as its target T3, Human Cathepsin B (Homo sapiens, UniProt P07858).
T3 construct: purchased
Description: Cathepsin B inhibition assay, Casein FITC. The settings on record: substrate Casein FITC; pH 6.5; molarity calculated on assumed molecular weight of 526 daltons; read-out: IC50 (Nanomolar). As to the method: as §1

Another assay has as its target T4, Human Insulyzin (ide) (Homo sapiens, UniProt P14735).
T4 construct: purchased
T4 sequence (P14735 1-1019): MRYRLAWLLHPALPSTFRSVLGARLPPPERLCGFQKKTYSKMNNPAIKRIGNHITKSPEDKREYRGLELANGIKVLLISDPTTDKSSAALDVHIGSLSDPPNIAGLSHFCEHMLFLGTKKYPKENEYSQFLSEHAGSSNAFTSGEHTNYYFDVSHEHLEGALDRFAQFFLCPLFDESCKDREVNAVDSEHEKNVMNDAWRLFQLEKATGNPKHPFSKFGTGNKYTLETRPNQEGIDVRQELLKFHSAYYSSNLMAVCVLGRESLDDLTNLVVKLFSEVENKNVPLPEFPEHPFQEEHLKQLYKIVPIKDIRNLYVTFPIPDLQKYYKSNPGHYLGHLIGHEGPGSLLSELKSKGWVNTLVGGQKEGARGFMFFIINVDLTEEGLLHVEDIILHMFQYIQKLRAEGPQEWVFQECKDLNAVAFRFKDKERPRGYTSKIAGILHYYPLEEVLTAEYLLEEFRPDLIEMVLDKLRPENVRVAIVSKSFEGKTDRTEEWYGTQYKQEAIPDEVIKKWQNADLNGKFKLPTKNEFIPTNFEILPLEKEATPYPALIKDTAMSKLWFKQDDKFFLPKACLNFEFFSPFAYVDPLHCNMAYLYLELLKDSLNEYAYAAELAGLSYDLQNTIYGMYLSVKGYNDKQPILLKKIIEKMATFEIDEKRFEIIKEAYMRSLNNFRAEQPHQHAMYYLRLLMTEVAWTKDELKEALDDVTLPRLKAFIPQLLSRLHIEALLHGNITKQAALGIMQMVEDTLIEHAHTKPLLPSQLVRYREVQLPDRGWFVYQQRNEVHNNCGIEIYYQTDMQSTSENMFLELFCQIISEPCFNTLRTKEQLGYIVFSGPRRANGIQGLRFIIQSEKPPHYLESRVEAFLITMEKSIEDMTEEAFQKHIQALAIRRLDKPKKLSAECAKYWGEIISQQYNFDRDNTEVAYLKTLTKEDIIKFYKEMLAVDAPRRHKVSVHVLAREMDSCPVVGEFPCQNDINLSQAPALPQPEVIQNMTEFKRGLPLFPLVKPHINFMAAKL
Kind of assay: Insulyzin (ide) fluorometric inhibition assay. As to conditions: substrate ES005; pH 7.5; molarity calculated on assumed molecular weight of 526 daltons; read-out: IC50 (Nanomolar). As to the method:
as §1

The next assay concerns the target T5, Human Cathepsin S (Homo sapiens, UniProt P25774).
T5 construct: purchased
Description: Cathepsin S fluorometric inhibition assay. The settings on record: substrate ES002; pH 4.5; molarity calculated on assumed molecular weight of 526 daltons; read-out: IC50 (Nanomolar). As to the method: as §1

For another assay, the system named is Calpain. Description: Calpain inhibition assay, Casein FITC. As to conditions: substrate Casein FITC; 0.3M potassium chloride, 0.1 mM EDTA, 3 mM DTT pH 6.5, 2 mM CaCl2. As to the method:
as §1

For the next assay, the system named is Trypsin. Description: Trypsin inhibition assay, Casein FITC. The settings on record: substrate Casein FITC; 0.3M potassium chloride, 0.1 mM EDTA, 3 mM DTT pH 6.5. The procedure: as §1
The specificity of the reaction was tested by treatment of trypsin, a serine protease with the above mentioned compounds and no inhibitory activity was found (as shown in FIG. 2).

The target in the next assay is T6, papain (Carica papaya, UniProt P00784).
T6 sequence (P00784 134-345): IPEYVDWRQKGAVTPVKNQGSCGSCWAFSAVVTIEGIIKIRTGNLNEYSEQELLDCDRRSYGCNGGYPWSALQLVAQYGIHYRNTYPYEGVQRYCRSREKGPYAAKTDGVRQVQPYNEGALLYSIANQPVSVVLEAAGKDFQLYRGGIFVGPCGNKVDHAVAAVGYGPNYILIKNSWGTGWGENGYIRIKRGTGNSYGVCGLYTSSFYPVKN
Description: Protease Fluorescent Detection Kit, inhibition of papain activity. As to conditions: FITC-labeled casein substrate; 10 μg papain in 50 μL; various concentrations of inhibitor. The procedure:
The Protease Fluorescent Detection Kit of Sigma Aldrich was used for measurement of protease activity using fluorometry. In exemplary embodiments, the method is based on the proteolytic hydrolysis of a proprietary formulation of a FITC-labeled casein substrate. The reaction mixture contained in a final volume of 50 μL, 10 μg papain and various concentrations of the candidate inhibitor.

pIC50: −log10 of the molar value.

T1 sequence (P07711 114-333): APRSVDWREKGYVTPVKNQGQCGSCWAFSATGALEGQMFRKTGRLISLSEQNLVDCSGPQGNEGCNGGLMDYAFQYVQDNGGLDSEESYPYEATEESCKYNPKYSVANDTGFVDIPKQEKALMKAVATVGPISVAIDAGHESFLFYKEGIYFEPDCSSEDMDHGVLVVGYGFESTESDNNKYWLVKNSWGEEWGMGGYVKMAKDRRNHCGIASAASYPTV
T5 sequence (P25774 115-331): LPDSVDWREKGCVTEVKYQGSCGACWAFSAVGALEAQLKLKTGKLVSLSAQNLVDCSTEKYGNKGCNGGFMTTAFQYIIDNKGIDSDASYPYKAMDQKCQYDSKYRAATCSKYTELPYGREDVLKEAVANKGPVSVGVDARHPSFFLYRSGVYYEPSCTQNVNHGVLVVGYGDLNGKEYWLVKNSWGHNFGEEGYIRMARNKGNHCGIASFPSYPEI

Consider 6 hydroxybinupharidine [Nup-4 sigma], for which the pIC50 on Human Cathepsin L was 10.25; on Human rCathepsin D it was 9.49; at Human Cathepsin B, 7.53; at Human Insulyzin (ide) it was 9.07.
Take “6 6′dihydroxybinupharidine [Nup-3 sigma]”: the pIC50 at Human Cathepsin L is 9.58; on Human rCathepsin D, 10.15; at Human Cathepsin S, 10.10; at Human Cathepsin B it was 7.66; on Human Insulyzin (ide), 9.48. Besides, the “IC50 (Microgram/ml / Nanomolar)” value in the assay on Calpain and in the assay with Trypsin was “no inhibition” throughout.
`C1=[N+](CCCCc2ccccc2)CCCC12CC1(C=[N+](CCCCCc3ccccc3)CC1)CS2` (stereo not drawn) [6-61]: the “inhibition of papain activity (FIG. 1)” value on papain was “demonstrated an inhibition of papain activity”.
